Consider 13 compounds from ChEMBL document CHEMBL1201862, “PubChem BioAssay data set” (2004).

Test systems include SF-295; K562; CAKI-1; HCT-116; SNB-19; SN12C; HOP-92; HCT-15; NCI-H23; ACHN; SK-MEL-2; KM12; A498; U-251; T47D; MCF7; SK-MEL-5.
Holding throughout (assay): growth of human tumour cells (NCI), 48 h

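Method: 48-hour compound exposure of cells in 96-well plates, five concentrations, linear interpolation of endpoints. GI50 marks 50% less growth.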 Calls of active or inactive are those of the source. No stated cut-off is given here; in the data, active = GI50 up to about 1.1 µM and inactive = higher. Some results are limits rather than exact numbers.

For the compound `O=C(O)CCC(NC(=O)c1ccc(Oc2nc3ccccc3nc2-c2ccccc2)cc1)C(=O)O` (configuration not stated), the GI50 in the experiment on SF-295, in the experiment on K562, in the experiment with CAKI-1, in the experiment on HCT-116, in the experiment on SNB-19 and in the experiment on SN12C was > 100 µM (inactive) each time. Further, the GI50 in the experiment on HOP-92 is > 100 µM (inactive); in the experiment on HCT-15, over 100 µM; in the experiment on NCI-H23, > 100 µM (inactive); with ACHN it was > 100 µM (inactive); in the experiment with SK-MEL-2 it was > 100 µM (inactive); with KM12, > 100 µM (inactive). The GI50 with A498, in the experiment with U-251, in the experiment on T47D and with MCF7 was > 100 µM (inactive) each time.
In the case of `CC(=O)OCc1cn(S(=O)(=O)c2ccc(C)cc2)cn1`, the GI50 with SF-295 is > 100 µM (inactive); in the experiment with K562, > 100 µM (inactive); in the experiment with CAKI-1, > 100 µM (inactive); with HCT-116, 24 µM (inactive); with SNB-19, > 100 µM (inactive); in the experiment with SN12C, > 100 µM (inactive). Further, the GI50 in the experiment with HOP-92 is > 100 µM (inactive); with HCT-15, 18.5 µM; in the experiment on NCI-H23 it was > 100 µM (inactive); in the experiment with ACHN, > 100 µM (inactive); with SK-MEL-5, 46.9 µM (inactive); in the experiment with A498, > 100 µM (inactive). Besides, the GI50 was > 100 µM (inactive) in the experiment on U-251, > 100 µM (inactive) in the experiment with T47D and 25.2 µM (inactive) in the experiment on MCF7.
Take `CCOC(CI)O[C@@H]1C=C[C@H](OC(C)=O)C1` (some centres not stated): the GI50 is > 100 µM (inactive) with SF-295; > 100 µM (inactive) with K562; 60.7 µM (inactive) in the experiment with CAKI-1; > 100 µM (inactive) with HCT-116; > 100 µM (inactive) in the experiment with SNB-19; > 100 µM (inactive) in the experiment on SN12C. For the same compound, the GI50 was over 100 µM in the experiment on HCT-15; > 100 µM (inactive) with NCI-H23; > 100 µM (inactive) in the experiment with ACHN; > 100 µM (inactive) with SK-MEL-2; 30.1 µM (inactive) in the experiment on KM12; > 100 µM (inactive) with A498. The GI50 in the experiment on U-251, in the experiment on T47D and with MCF7 was > 100 µM (inactive) each time.
With `O=C1C(=Cc2ccccc2O)N=C(c2ccccc2)N1n1c(-c2ccccc2)nc2ccccc2c1=O`, the GI50 with SF-295 is 22.8 µM (inactive); in the experiment on K562 it was 29.6 µM (inactive); in the experiment with CAKI-1, 25.8 µM (inactive); with HCT-116, 32.3 µM (inactive); with SNB-19, 48 µM (inactive); with SN12C, 43 µM (inactive). The GI50 was 40.4 µM in the experiment with HCT-15; 35.4 µM (inactive) with NCI-H23; 29.5 µM (inactive) with ACHN; 30.3 µM (inactive) in the experiment with KM12; 19.1 µM (inactive) in the experiment on SK-MEL-5; 21.5 µM (inactive) in the experiment on A498. For the same compound, the values for the GI50 in the experiment on T47D and with MCF7 were 26.2 µM (inactive) and 17.2 µM (inactive), respectively.
As to `O=C(O)CCC1C(=O)C2CCN1CC2` (configuration not stated), the GI50 in the experiment with SF-295, with K562, in the experiment with CAKI-1, in the experiment with HCT-116, in the experiment with SNB-19 and in the experiment with SN12C was > 100 µM (inactive) in each case. The GI50 is over 100 µM with HCT-15; > 100 µM (inactive) in the experiment with NCI-H23; > 100 µM (inactive) with ACHN; > 100 µM (inactive) in the experiment on SK-MEL-2; > 100 µM (inactive) in the experiment on KM12; > 100 µM (inactive) with SK-MEL-5. Further, the GI50 is 97.7 µM (inactive) in the experiment on A498, > 100 µM (inactive) in the experiment with U-251, > 100 µM (inactive) in the experiment with T47D and > 100 µM (inactive) in the experiment with MCF7.
Take `CC1=C(C)C(=O)C2=C(OCCO2)C1=O`: the GI50 in the experiment on SF-295 is 18.1 µM (inactive); in the experiment on CAKI-1 it was 17.6 µM (inactive); in the experiment with HCT-116, 3.73 µM (inactive); in the experiment with SNB-19, 17.3 µM (inactive); in the experiment on SN12C it was 20 µM (inactive); in the experiment on HOP-92 it was 2.75 µM (inactive). In addition, the GI50 was 17.5 µM with HCT-15; 18.2 µM (inactive) in the experiment on NCI-H23; 25.2 µM (inactive) with ACHN; 17.3 µM (inactive) with KM12; 16 µM (inactive) with SK-MEL-5; 19.5 µM (inactive) in the experiment with A498. The GI50 with U-251 is 16.1 µM (inactive); in the experiment on T47D, 2.39 µM (inactive); in the experiment with MCF7, 24.5 µM (inactive).
For the compound `CCOC(=O)Cn1c(C)nc2nn(Cc3ccccc3)cc2c1=O`, the GI50 with SF-295, in the experiment on K562, with HCT-116, in the experiment on SNB-19, in the experiment on SN12C and in the experiment on HOP-92 was > 100 µM (inactive) in each case. Also, the GI50 in the experiment with HCT-15 is over 100 µM; in the experiment on NCI-H23, > 100 µM (inactive); in the experiment on ACHN, > 100 µM (inactive); in the experiment with SK-MEL-2, > 100 µM (inactive); in the experiment with KM12, > 100 µM (inactive); in the experiment with SK-MEL-5, > 100 µM (inactive). The GI50 in the experiment with A498, in the experiment with U-251, in the experiment on T47D and in the experiment on MCF7 was > 100 µM (inactive) throughout.
With `O=C1CC2c3ccccc3CCC2c2ccccc21` (configuration not stated), the GI50 in the experiment with SF-295 is 17.6 µM (inactive); in the experiment with K562 it was 6.32 µM (inactive); with CAKI-1 it was 33.2 µM (inactive); with HCT-116 it was 11.1 µM (inactive); in the experiment with SNB-19 it was 15.1 µM (inactive); with HCT-15, 14.1 µM. Also, the GI50 was 20.2 µM (inactive) with NCI-H23; 28.2 µM (inactive) in the experiment on ACHN; 16.8 µM (inactive) with SK-MEL-2; 9.35 µM (inactive) with KM12; 11.6 µM (inactive) in the experiment on SK-MEL-5; 1 µM (active) in the experiment on A498. Moreover, the figures for the GI50 with U-251, in the experiment with T47D and with MCF7 were 34.8 µM (inactive), 42.9 µM (inactive) and 24 µM (inactive), respectively.
Turning to `CC1=NC(=Cc2ccc(Cl)cc2)C(=O)N1n1c(-c2ccccc2)nc2ccccc2c1=O`, the GI50 was 40.9 µM (inactive) in the experiment with SF-295; 34.8 µM (inactive) with K562; 17.8 µM (inactive) in the experiment on CAKI-1; 34.8 µM (inactive) in the experiment with HCT-116; 48.6 µM (inactive) in the experiment on SNB-19; 43.4 µM (inactive) in the experiment on SN12C. Also, the GI50 is 44.4 µM in the experiment on HCT-15; 26.3 µM (inactive) in the experiment with NCI-H23; 22.2 µM (inactive) in the experiment with ACHN; 36.4 µM (inactive) in the experiment on KM12; 36.7 µM (inactive) in the experiment on SK-MEL-5; 24.6 µM (inactive) in the experiment on A498. Further, the GI50 is 25.4 µM (inactive) with T47D and 28.2 µM (inactive) in the experiment with MCF7.
Consider `COc1ccc(C(=O)c2sc(N(C)C)nc2-c2ccccc2)cc1`, for which the GI50 with K562 was 35.4 µM (inactive); with HCT-116, 31 µM (inactive); with SNB-19, 64.3 µM (inactive); with SN12C, 39.6 µM (inactive); with HOP-92 it was 91.6 µM (inactive); with HCT-15, 26.4 µM. The GI50 with NCI-H23 is 34.5 µM (inactive); in the experiment on ACHN, 33.7 µM (inactive); in the experiment on SK-MEL-2 it was 22.5 µM (inactive); with KM12, 15.8 µM (inactive); with SK-MEL-5 it was 34 µM (inactive); in the experiment with A498, 26.9 µM (inactive). Further, the GI50 in the experiment with U-251 is 43 µM (inactive); in the experiment on T47D, 33.6 µM (inactive); in the experiment on MCF7, 21.6 µM (inactive).
In the case of `COc1ccc2c(c1)c1c(n2CCN2CCOCC2)-c2cccc(OC)c2CC1`, the GI50 was 30.7 µM (inactive) in the experiment on SF-295; 17.3 µM (inactive) in the experiment with K562; > 100 µM (inactive) in the experiment with CAKI-1; 33.7 µM (inactive) in the experiment on HCT-116; 47.2 µM (inactive) in the experiment with SN12C; 45.8 µM (inactive) in the experiment with HOP-92. For the same compound, the GI50 in the experiment on HCT-15 is 29.5 µM; with NCI-H23, 52.8 µM (inactive); in the experiment with ACHN it was 37 µM (inactive); with SK-MEL-2, 22.3 µM (inactive); in the experiment on KM12, 20.4 µM (inactive); in the experiment with SK-MEL-5, 41.6 µM (inactive). The GI50 was 26.6 µM (inactive) with A498, 40.1 µM (inactive) in the experiment on U-251, 59 µM (inactive) in the experiment with T47D and 23.5 µM (inactive) in the experiment with MCF7.
For `O=C(Nc1ccccc1Cl)c1cc(S(=O)(=O)Nc2n[nH]c(=O)n2-c2ccccc2)c(S)cc1Cl`, the GI50 is > 100 µM (inactive) with SF-295; > 100 µM (inactive) in the experiment with CAKI-1; > 10 µM (inactive) in the experiment on HCT-116; 92.3 µM (inactive) with SNB-19; > 100 µM (inactive) in the experiment with SN12C; > 100 µM (inactive) in the experiment on HOP-92. Further, the GI50 in the experiment with HCT-15 was over 100 µM; in the experiment on NCI-H23, > 100 µM (inactive); with SK-MEL-2, > 100 µM (inactive); with KM12 it was > 100 µM (inactive); in the experiment on SK-MEL-5, > 100 µM (inactive); in the experiment with A498 it was > 100 µM (inactive). The GI50 in the experiment on U-251, in the experiment with T47D and with MCF7 was > 100 µM (inactive) throughout.
As to `O=C(Cn1c(C(=O)/C=C/c2ccc(Cl)c(Cl)c2)nc2ccccc21)c1ccccc1`, the GI50 in the experiment on K562 is 33.7 µM (inactive); with HCT-116, 15.9 µM (inactive); in the experiment on SNB-19, 27.4 µM (inactive); with SN12C, 16 µM (inactive); in the experiment with HOP-92, 25.2 µM (inactive); in the experiment with HCT-15 it was 25.2 µM. Moreover, the GI50 was 31.6 µM (inactive) with NCI-H23; 28 µM (inactive) in the experiment on ACHN; 19.8 µM (inactive) with SK-MEL-2; 19.6 µM (inactive) in the experiment on KM12; 16.9 µM (inactive) with SK-MEL-5; 26.1 µM (inactive) in the experiment on A498. The results for the GI50 in the experiment with U-251, in the experiment on T47D and in the experiment on MCF7 were 26.8 µM (inactive), 31 µM (inactive) and 26.9 µM (inactive), respectively.
